# Assay results reported in PubChem BioAssay (NCI).
# Where “and” joins values, the source holds several entries; their conditions need not be identical. Equal entries are not always repeated.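 Compound exposure: 48 hours, 5 concentrations, 96-well plates. GI50: concentration for 50% inhibition of growth. At the TGI there is no net growth.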
# Assays:
# Assay in all cases: NCI-60 cell line screen, 48 h
# 786-0 renal = test system: 786-0 renal
# ACHN renal = test system: ACHN renal
# BT-549 breast = test system: BT-549 breast
# HS 578T breast = test system: HS 578T breast
# OVCAR-4 ovarian = test system: OVCAR-4 ovarian
# OVCAR-8 ovarian = test system: OVCAR-8 ovarian
# SK-MEL-5 melanoma = test system: SK-MEL-5 melanoma
# SN12C renal = test system: SN12C renal
# U251 CNS = test system: U251 CNS
# UACC-62 melanoma = test system: UACC-62 melanoma
SMILES,TGI (786-0 renal),TGI (ACHN renal),TGI (BT-549 breast),TGI (HS 578T breast),TGI (OVCAR-4 ovarian),TGI (OVCAR-8 ovarian),TGI (SK-MEL-5 melanoma),TGI (SN12C renal),TGI (U251 CNS),TGI (UACC-62 melanoma),GI50 (786-0 renal),GI50 (ACHN renal),GI50 (BT-549 breast),GI50 (HS 578T breast),GI50 (OVCAR-4 ovarian),GI50 (OVCAR-8 ovarian),GI50 (SK-MEL-5 melanoma),GI50 (SN12C renal),GI50 (U251 CNS),GI50 (UACC-62 melanoma)
CN(C)C(=O)C(NCCO)c1ccccc1 (stereo not given),> 100 µM,> 100 µM,> 100 µM,> 100 µM,> 100 µM,> 100 µM,> 100 µM,> 100 µM,> 100 µM,> 100 µM,–,–,–,–,–,–,–,–,–,–
Cc1cc(NCCCNc2ccnc3cc(Cl)ccc23)nc(Nc2ccc(C(=O)N3CCCCC3)cc2)n1,3.72 µM,8.23 µM,5.43 µM,6.38 µM,12.6 µM,12.4 µM,3.34 µM,5.52 µM,4.92 µM,3.81 µM,1.83 µM,2.85 µM,2.31 µM,2.68 µM,2.83 µM,3.61 µM,1.93 µM,2.33 µM,2.25 µM,2.02 µM
CC[C@]12C=CCN3CC[C@@]4(c5ccc(OC)cc5N(C)[C@H]4[C@@](O)(C(=O)OC)[C@@H]1OC(=O)CCCC[P+](c1ccccc1)(c1ccccc1)c1ccccc1)[C@@H]32,6.74 µM,30.1 µM,1.94 µM,9.11 µM,10.8 µM,9.92 µM,3.08 µM,8.26 µM,4.4 µM,1.54 µM,2.33 µM,14 µM,0.465 µM,1.34 µM,0.342 µM,2.23 µM,1.69 µM,0.414 µM,0.441 µM,0.374 µM
CS(=O)(=O)OCCCCOS(C)(=O)=O,250 µM and > 1000 µM,250 µM and > 1000 µM,> 1000 µM,> 1000 µM,223 µM and > 1000 µM,250 µM and > 1000 µM,242 µM and > 1000 µM,250 µM and > 1000 µM,238 µM and > 1000 µM,250 µM and > 1000 µM,539 µM,354 µM,> 250 µM,> 555 µM,> 1000 µM,> 873 µM,520 µM,623 µM,469 µM,472 µM
CN(C)c1ccc(/C=N/NC(=O)CSc2nc3sc4c(c3c(=O)n2-c2ccccc2)CCCCC4)cc1,39.1 µM,> 100 µM,> 100 µM,40.5 µM,6.49 µM,> 100 µM,> 100 µM,> 100 µM,17.1 µM,> 100 µM,8.26 µM,5.59 µM,16.1 µM,3.85 µM,2.56 µM,4.83 µM,3.44 µM,4.59 µM,3.2 µM,4.04 µM
O=c1ncc(I)c[nH]1,> 100 µM,> 100 µM,> 100 µM,> 100 µM,> 100 µM,> 100 µM,> 100 µM,> 100 µM,> 100 µM,> 100 µM,> 100 µM,> 100 µM,> 100 µM,> 100 µM,> 100 µM,> 100 µM,> 100 µM,> 100 µM,> 100 µM,> 100 µM
Cc1cc(C)nc(NS(=O)(=O)c2ccc(Nc3nc4nc(NCc5ccccc5)nc(-c5ccc(O)cc5)c4c(=O)[nH]3)cc2)n1,> 100 µM,> 100 µM,52.9 µM,88.6 µM,> 100 µM,> 100 µM,> 100 µM,> 100 µM,> 100 µM,> 100 µM,66.7 µM,29.6 µM,10.8 µM,14.6 µM,32.1 µM,36.5 µM,25.7 µM,25.1 µM,36.7 µM,25.2 µM
CCN(CC)c1ccc(CNc2cc(C)nc3ccc(OC)cc23)cc1,4.29 µM,7.17 µM,10.7 µM,6.73 µM,16.5 µM,15.9 µM,2.72 µM,20.6 µM,4.3 µM,3.67 µM,2.01 µM,2.63 µM,3.22 µM,2.32 µM,5 µM,4.05 µM,1.3 µM,5.33 µM,2.04 µM,1.72 µM
COc1ccc(Nc2[nH]n(C3=Nc4ccccc4Sc4ccccc43)c(=O)c2C#N)cc1,22.3 µM,> 100 µM,3.4 µM,> 100 µM,> 100 µM,> 100 µM,1.48 µM,> 100 µM,43.3 µM,11 µM,2.67 µM,1.15 µM,0.494 µM,1.98 µM,0.803 µM,2.01 µM,0.396 µM,2.36 µM,2.5 µM,1.21 µM
COc1ccc(-c2c(-c3cc4c(c(OC)c3OC)OCO4)noc2N)cc1,41.6 µM,> 100 µM,17 µM,> 100 µM,> 100 µM,> 56.1 µM,> 69.4 µM,> 100 µM,> 100 µM,> 100 µM,0.49 µM,1.43 µM,0.507 µM,0.365 µM,0.671 µM,0.455 µM,0.311 µM,0.792 µM,0.417 µM,0.534 µM
